We go through 7 molecules from ChEMBL document CHEMBL4270604, “Hedgehog pathway inhibitors of the acylthiourea and acylguanidine class show antitumor activity on colon cancer in vitro and in vivo” (Eur J Med Chem, 2018).

A short description of data set [1]: Inhibition of hedgehog signaling pathway-mediated differentiation of mouse C3H10T1/2 cells assessed as decrease in SAG-induced ALP activity after 6 days by chemiluminescence-based assay. Particulars: C3H 10T1/2, 144 h; call rule not given here.
Another data set relates to LS180. Put plainly: Antiproliferative activity against human LS180 cells after 72 hrs by sulforhodamine-B assay. The class given is functional, cell-based. Particulars: for IC50: LS180, 72 h. For orientation: In SRB staining, fixed cells bind dye roughly in proportion to their protein.
The subject of a further data set is HT-1080. Put plainly: Antiproliferative activity against human HT1080 cells after 72 hrs by sulforhodamine-B assay. Conditions: for IC50: HT-1080, 72 h. In kind it is functional, cell-based.
The species entered for the next data set is Homo sapiens. Put plainly: Substrate activity at recombinant human P-gp in membrane fraction assessed as increase in ATPase activity at 10 uM by luminescent P-gp-Glo assay relative to control.
The target in data set [2] is T1, CYP1A2 (Homo sapiens, UniProt P05177).
T1 sequence (P05177 whole entry): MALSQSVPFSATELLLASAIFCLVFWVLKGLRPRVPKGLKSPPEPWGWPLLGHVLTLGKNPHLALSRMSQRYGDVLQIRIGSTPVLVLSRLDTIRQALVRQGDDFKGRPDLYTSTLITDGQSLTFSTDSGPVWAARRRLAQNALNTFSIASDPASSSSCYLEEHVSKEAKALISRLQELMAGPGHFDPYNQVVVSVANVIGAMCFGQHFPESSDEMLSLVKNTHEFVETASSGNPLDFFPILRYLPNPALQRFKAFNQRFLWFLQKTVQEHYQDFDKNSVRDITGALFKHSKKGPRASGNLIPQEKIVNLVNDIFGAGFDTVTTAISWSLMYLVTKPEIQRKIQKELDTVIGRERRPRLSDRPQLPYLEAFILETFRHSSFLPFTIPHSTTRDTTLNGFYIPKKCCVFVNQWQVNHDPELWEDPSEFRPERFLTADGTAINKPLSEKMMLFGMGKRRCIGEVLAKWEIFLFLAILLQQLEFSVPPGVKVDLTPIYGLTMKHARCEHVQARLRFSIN
Put plainly: Inhibition of recombinant human CYP1A2 expressed in insect cell microsomes at 1 uM using Luciferin-ME as substrate preincubated for 10 mins followed by NADPH addition measured after 30 mins by luminometric method. The class given is ADME. Conditions: probe Luciferin-ME.

The target in data set [3] is T2, CYP3A4 (Homo sapiens, UniProt P08684). Put plainly: Inhibition of recombinant human CYP3A4 expressed in insect cell microsomes at 1 uM using Luciferin-IPA as substrate preincubated for 10 mins followed by NADPH addition measured after 10 mins by luminometric method. In kind it is ADME. Particulars: probe Luciferin-IPA.
T2 sequence (P08684 whole entry): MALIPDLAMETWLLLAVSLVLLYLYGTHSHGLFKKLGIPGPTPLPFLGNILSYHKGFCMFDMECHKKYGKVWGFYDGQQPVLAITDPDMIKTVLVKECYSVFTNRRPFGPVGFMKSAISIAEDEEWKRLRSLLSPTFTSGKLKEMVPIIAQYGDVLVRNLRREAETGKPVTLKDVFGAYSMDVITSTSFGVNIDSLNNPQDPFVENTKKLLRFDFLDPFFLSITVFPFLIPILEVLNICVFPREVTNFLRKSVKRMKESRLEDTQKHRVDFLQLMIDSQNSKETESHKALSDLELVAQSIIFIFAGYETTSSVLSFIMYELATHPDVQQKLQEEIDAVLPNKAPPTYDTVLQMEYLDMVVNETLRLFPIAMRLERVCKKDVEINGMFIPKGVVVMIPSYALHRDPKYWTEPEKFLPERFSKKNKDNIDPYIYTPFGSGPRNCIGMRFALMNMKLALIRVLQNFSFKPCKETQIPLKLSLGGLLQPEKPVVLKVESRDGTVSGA
For data set [4], the target named is T1, CYP1A2. Put plainly: Inhibition of recombinant human CYP1A2 expressed in insect cell microsomes at 5 uM using Luciferin-ME as substrate preincubated for 10 mins followed by NADPH addition measured after 30 mins by luminometric method. In kind it is ADME. Conditions: probe Luciferin-ME.
Data set [5] deals with T1, CYP1A2. As to the kind of experiment: Inhibition of recombinant human CYP1A2 expressed in insect cell microsomes at 10 uM using Luciferin-ME as substrate preincubated for 10 mins followed by NADPH addition measured after 30 mins by luminometric method. The class given is ADME. Particulars: probe Luciferin-ME.
The target of data set [6] is T2, CYP3A4. As to the kind of experiment: Inhibition of recombinant human CYP3A4 expressed in insect cell microsomes at 5 uM using Luciferin-IPA as substrate preincubated for 10 mins followed by NADPH addition measured after 10 mins by luminometric method. The class given is ADME. Conditions: probe Luciferin-IPA.
Data set [7] addresses T2, CYP3A4. As to the kind of experiment: Inhibition of recombinant human CYP3A4 expressed in insect cell microsomes at 10 uM using Luciferin-IPA as substrate preincubated for 10 mins followed by NADPH addition measured after 10 mins by luminometric method. The class given is ADME. Conditions: probe Luciferin-IPA.
The target in data set [8] is T3, CYP2C9 (Homo sapiens, UniProt P11712). Put plainly: Inhibition of recombinant human CYP2C9 expressed in insect cell microsomes at 1 uM using Luciferin-H as substrate preincubated for 30 mins followed by NADPH addition measured after 30 mins by luminometric method. In kind it is ADME. Conditions: probe Luciferin-H.
T3 sequence (P11712 whole entry): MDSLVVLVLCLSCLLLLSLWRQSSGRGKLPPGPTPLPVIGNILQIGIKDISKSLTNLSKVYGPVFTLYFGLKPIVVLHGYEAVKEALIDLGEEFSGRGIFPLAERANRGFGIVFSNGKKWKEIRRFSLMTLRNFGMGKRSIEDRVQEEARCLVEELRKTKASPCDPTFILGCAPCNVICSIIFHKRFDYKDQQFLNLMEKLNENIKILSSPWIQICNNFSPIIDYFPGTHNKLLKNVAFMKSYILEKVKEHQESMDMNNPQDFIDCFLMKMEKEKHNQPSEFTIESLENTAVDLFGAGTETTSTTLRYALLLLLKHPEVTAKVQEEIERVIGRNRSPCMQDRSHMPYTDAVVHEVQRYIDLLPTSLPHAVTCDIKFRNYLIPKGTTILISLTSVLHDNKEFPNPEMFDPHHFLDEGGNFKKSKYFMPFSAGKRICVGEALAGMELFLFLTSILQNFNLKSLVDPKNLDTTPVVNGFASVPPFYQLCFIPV
Data set [9] concerns the target T3, CYP2C9. Put plainly: Inhibition of recombinant human CYP2C9 expressed in insect cell microsomes at 5 uM using Luciferin-H as substrate preincubated for 30 mins followed by NADPH addition measured after 30 mins by luminometric method. In kind it is ADME. Particulars: probe Luciferin-H.
The target of data set [10] is T3, CYP2C9. Put plainly: Inhibition of recombinant human CYP2C9 expressed in insect cell microsomes at 10 uM using Luciferin-H as substrate preincubated for 30 mins followed by NADPH addition measured after 30 mins by luminometric method. The class given is ADME. Particulars: probe Luciferin-H.
The target of data set [11] is T4, CYP2C19 (Homo sapiens, UniProt P33261). Put plainly: Inhibition of recombinant human CYP2C19 expressed in insect cell microsomes at 1 uM using Luciferin-H EGE as substrate preincubated for 20 mins followed by NADPH addition measured after 30 mins by luminometric method. In kind it is ADME. Particulars: probe Luciferin-H EGE.
T4 sequence (P33261 whole entry): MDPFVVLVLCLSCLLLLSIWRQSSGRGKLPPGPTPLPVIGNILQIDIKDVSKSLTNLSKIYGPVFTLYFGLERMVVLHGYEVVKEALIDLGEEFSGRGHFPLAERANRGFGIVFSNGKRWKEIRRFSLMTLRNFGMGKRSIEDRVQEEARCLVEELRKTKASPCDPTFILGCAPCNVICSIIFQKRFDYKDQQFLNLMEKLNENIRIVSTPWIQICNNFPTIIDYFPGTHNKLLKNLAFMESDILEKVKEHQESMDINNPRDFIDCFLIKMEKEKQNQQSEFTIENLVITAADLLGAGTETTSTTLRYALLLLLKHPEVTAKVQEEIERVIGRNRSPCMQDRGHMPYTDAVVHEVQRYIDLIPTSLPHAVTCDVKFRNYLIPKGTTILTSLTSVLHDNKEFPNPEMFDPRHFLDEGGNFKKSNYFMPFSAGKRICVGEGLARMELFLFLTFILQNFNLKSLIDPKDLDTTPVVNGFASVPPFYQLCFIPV
The target in data set [12] is T4, CYP2C19. Put plainly: Inhibition of recombinant human CYP2C19 expressed in insect cell microsomes at 5 uM using Luciferin-H EGE as substrate preincubated for 20 mins followed by NADPH addition measured after 30 mins by luminometric method. In kind it is ADME. Particulars: probe Luciferin-H EGE.
In data set [13] the target is T4, CYP2C19. Put plainly: Inhibition of recombinant human CYP2C19 expressed in insect cell microsomes at 10 uM using Luciferin-H EGE as substrate preincubated for 20 mins followed by NADPH addition measured after 30 mins by luminometric method. The class given is ADME. Conditions: probe Luciferin-H EGE.
The target of data set [14] is T5, CYP2D6 (Homo sapiens, UniProt P10635). Put plainly: Inhibition of recombinant human CYP2D6 expressed in insect cell microsomes at 1 uM using Luciferin-ME EGE as substrate preincubated for 30 mins followed by NADPH addition measured after 45 mins by luminometric method. The class given is ADME. Conditions: probe Luciferin-ME EGE.
T5 sequence (P10635 whole entry): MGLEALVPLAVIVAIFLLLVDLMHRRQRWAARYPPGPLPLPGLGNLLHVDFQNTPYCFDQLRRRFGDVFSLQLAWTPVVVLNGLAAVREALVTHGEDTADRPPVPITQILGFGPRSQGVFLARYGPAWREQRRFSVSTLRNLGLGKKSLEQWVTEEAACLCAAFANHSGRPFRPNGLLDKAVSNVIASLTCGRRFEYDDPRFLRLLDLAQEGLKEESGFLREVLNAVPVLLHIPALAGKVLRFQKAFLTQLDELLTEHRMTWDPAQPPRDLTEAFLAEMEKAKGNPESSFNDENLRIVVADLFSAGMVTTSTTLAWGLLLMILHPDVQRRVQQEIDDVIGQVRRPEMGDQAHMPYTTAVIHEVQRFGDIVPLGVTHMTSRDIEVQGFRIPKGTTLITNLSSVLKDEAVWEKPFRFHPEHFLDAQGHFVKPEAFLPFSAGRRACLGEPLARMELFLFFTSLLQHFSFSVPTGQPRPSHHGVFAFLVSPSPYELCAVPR
The target in data set [15] is T5, CYP2D6. Put plainly: Inhibition of recombinant human CYP2D6 expressed in insect cell microsomes at 5 uM using Luciferin-ME EGE as substrate preincubated for 30 mins followed by NADPH addition measured after 45 mins by luminometric method. The class given is ADME. Particulars: probe Luciferin-ME EGE.
Data set [16] deals with T5, CYP2D6. Put plainly: Inhibition of recombinant human CYP2D6 expressed in insect cell microsomes at 10 uM using Luciferin-ME EGE as substrate preincubated for 30 mins followed by NADPH addition measured after 45 mins by luminometric method. The class given is ADME. Conditions: probe Luciferin-ME EGE.
Data set [17] can be described thus: Drug recovery in mouse plasma at 37 degC after 120 mins by HPLC-MS/MS analysis. In kind it is ADME, cell-free. Particulars: read-out: Drug recovery.
Data set [18] can be described thus: Stability of the compound in mouse deproteinized plasma at 37 degC after 120 mins by HPLC-MS/MS analysis. Particulars: 2 h. In kind it is ADME, cell-free.
Data set [19] concerns the target T6, Coelenterazine h 2-monooxygenase (Renilla reniformis, UniProt P27652).
T6 sequence (P27652 whole entry): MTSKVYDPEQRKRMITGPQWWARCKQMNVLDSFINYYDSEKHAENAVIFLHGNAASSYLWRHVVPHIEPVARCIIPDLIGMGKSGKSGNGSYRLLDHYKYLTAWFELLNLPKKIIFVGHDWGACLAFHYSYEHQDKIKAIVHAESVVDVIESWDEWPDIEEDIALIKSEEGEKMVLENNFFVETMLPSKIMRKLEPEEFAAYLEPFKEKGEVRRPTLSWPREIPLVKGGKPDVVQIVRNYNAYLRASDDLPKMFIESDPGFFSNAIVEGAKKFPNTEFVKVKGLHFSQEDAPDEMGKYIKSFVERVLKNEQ
As to the kind of experiment: Effect on Renilla reniformis luciferase. In kind it is ADME.

Data set [20] in a line: in vitro. Particulars: human, Caco-2.
Description: Apparent permeability of the compound from apical to basolateral side in human Caco2 cells assessed as drug recovery after 120 mins by LC-MS/MS analysis
Data set [21] in a line: in vitro. Conditions: human, Caco-2. This is another data set of the same source.
Description: Apparent permeability of the compound from basolateral to apical side in human Caco2 cells assessed as drug recovery after 120 mins by LC-MS/MS analysis
Data set [22] in a line: Inhibition of hedgehog signaling pathway in mouse Light2 cells stimulated with 100 nM SAG after 30 hrs by Gli-firefly luciferase reporter gene assay.
The species entered for the next data set is Mus musculus. The data set is described as above.
A short description of data set [23]: Half life in cryopreserved mouse liver microsomes at 1 uM after 120 mins by HPLC-MS/MS analysis. In kind it is ADME, microsome.
The nature of data set [24]: Intrinsic clearance in mouse liver […] per million cells at 1 uM after 120 mins by HPLC-MS/MS analysis. In kind it is ADME. Particulars: 2 h.
Data set [25] is described as follows: Intrinsic clearance in mouse liver microsomes at 1 uM after 120 mins by HPLC-MS/MS analysis. Conditions: read-out: CLH. The class given is ADME, microsome. (In general: Liver microsomes are vesicles of endoplasmic reticulum, rich in cytochrome P450 enzymes.)
A short description of data set [26]: in vitro. Conditions: human, Caco-2. The source holds these as a separate data set.
Description: Apparent permeability of the compound from apical to basolateral side in human Caco2 cells after 120 mins by LC-MS/MS analysis

As usually defined, the IC50 is the midpoint of a concentration-inhibition curve. A word on the inhibition: it is the percentage by which the read-out fell short of the control. On to `COc1cc(C(=O)NC(=S)Nc2ccc(C)c(NC(=O)c3ccc(-c4ccc(F)cc4)cc3)c2)cc(OC)c1OC`, for which the IC50 in data set [1] came out at 670 nM; in the data set on LS180, 7500 nM; in the data set on HT-1080 it was 27000 nM; in data set [22], 100 nM. Further, the Activity entry in the data set with LS180 was “Dose-dependent effect”; with HT-1080 it was “Dose-dependent effect”; in data set [19], “Not Active”. Further, in the data set listed under Homo sapiens, the fold change (FC) was 3. For the same molecule, the inhibition at 0.5 h, 1 µM on CYP1A2 [2] was determined as 2%; on CYP2C9 [8] it was 63%; at CYP2C19 [11], 25%. In addition, the inhibition at 10 min, 1 µM at CYP3A4 [3] came to 4%. Further, the inhibition at 0.5 h, 5 µM at CYP1A2 [4] came out at 5%; on CYP2C9 [9], 69%; at CYP2C19 [12], 33%. Also, the inhibition at 0.5 h, 10 µM on CYP1A2 [5] is 1%; on CYP2C9 [10], 71%; on CYP2C19 [13] it was 27%. Besides, at CYP3A4 [6], the inhibition at 10 min, 5 µM was determined as 7%. The inhibition at 10 min, 10 µM on CYP3A4 [7] was found to be 15%. At CYP2D6 [14], the inhibition at 0.75 h, 1 µM turned out to be 18%. Also, the inhibition at 0.75 h, 5 µM on CYP2D6 [15] came to 1%. Further, the inhibition at 0.75 h, 10 µM on CYP2D6 [16] came to 6%. Moreover, the remaining at 2 h in data set [17] was found to be 4.9%. The Stability result in data set [18] is given as “Stable”. Also, the recovery at 2 h in the data set “in vitro [20]” was 65.4%; in the data set “in vitro [21]”, 42.9%. Also, the inhibition entry in the data set filed under Mus musculus was “Dose-dependent effect”.
Regarding `Cc1c(C)c2c(c(C)c1O)CCC(C)(COc1ccc(CC3SC(=O)NC3=O)cc1)O2` (stereo not given) [TROGLITAZONE], the inhibition at 0.5 h, 10 µM at CYP2C19 [13] was 84%.
For orientation: half-life means how long it takes for the measured level to halve. A higher half-life goes with slow loss. Take `CCOc1ccc2ccc(=O)oc2c1` [ETHOXYCOUMARIN]: in [23], the half-life at 1 µM came to 4.84 min. Besides, the CLH in data set [24] was determined as 477 µL/min. The CLint scaled at 1 µM in data set [25] is 1260 mL/min/kg.
As for `CS(=O)(=O)c1ccc(C(=O)Nc2ccc(Cl)c(-c3ccccn3)c2)c(Cl)c1` [VISMODEGIB], the 50% inhibitory concentration (IC50) in [1] was 50 nM; in the data set with LS180, 45000 nM; in the data set on HT-1080, more than 100000 nM; in data set [22] it was 50 nM. For the same molecule, the Activity entry in the data set with LS180 was “Dose-dependent effect”; in the data set with HT-1080, “Dose-dependent effect”; in data set [19], “Not Active”. In addition, the inhibition result in the data set listed under Mus musculus is “Dose-dependent effect”.
Broadly, the Papp A→B is how fast a substance crosses the layer from the apical side. Consider `CC(C)NCC(O)COc1cccc2ccccc12` (stereo not given) [PROPRANOLOL], for which the Papp A→B at 2 h in the data set “in vitro [26]” was found to be 30.9 ×10⁻⁶ cm/s. Further, the recovery at 2 h in the data set “in vitro [20]” was 70%.
Regarding `CC(C)NCC(O)COc1ccc(CC(N)=O)cc1` (stereo not given) [ATENOLOL], the results for the recovery at 2 h in “in vitro [20]” and in “in vitro [21]” were 94.7% and 102%, respectively.
As to `COc1ccc(CCN(C)CCCC(C#N)(c2ccc(OC)c(OC)c2)C(C)C)cc1OC` (stereo not given), the fold change (FC) in the data set filed under Homo sapiens stood at 8.5.
